# From patent US10986834B2, “Peptide-containing composition and stabilizer, stabilizing method, and storage method for peptide” (KANEKA CORPORATION, priority 2016, dated 2021)
# Settings: 1% by mass in distilled water at 25° C.
# Protocol: Potassium sulfate, dipotassium hydrogen phosphate, and potassium bicarbonate components were each dissolved in distilled water at 25° C. to be a concentration of 1% by mass and stirred sufficiently.
row,SMILES,pH
1,O=P([O-])([O-])O.[K+].[K+] [Dipotassium hydrogen phosphate],9.0
2,O=C([O-])O.[K+] [Potassium bicarbonate],8.3
3,O=S(=O)([O-])[O-].[K+].[K+] [Potassium sulfate],3.3
